Laboratory results published in US20260272797A1, “FRAGRANCE COMPOSITION” (GIVAUDAN SA, priority 2023, published 2026).

Assay: Gas-phase evaluation of each fragrance ingredient alone against model scalp malodour, MiniVAS device, panel of 5 experts
Conditions: Table 3, air flow 50 ml/min, scale of 1-5 (1=barely noticeable, 5=very strong)
Description: In a first set of experiments, the scalp malodour counteractancy of 173 fragrance ingredients was evaluated by panel of 5 experts.
The evaluation was performed in the gas phase, using a MiniVAS™ device (ex Givaudan SA). This device is a regulating means that comprises a plurality of channels adapted to convey a gas (more particularly air) through cartridges, each cartridge containing a fragrance ingredient adsorbed onto an adsorbent. The air flows coming from the different cartridges are admixed and conveyed to the user's nose through a tubing fitted with an olfactometer funnel. Thus, by opening and closing channels and maintaining these opened and closed, respectively, for predetermined times, the regulating means can determine which fragrance ingredients and how much thereof are conveyed and when, and thus alter the nature of the fragrance perceived by the user. A description of the device can be found in WO2014154909A1, page 2, line 11 to page 4, line 7, and in H. R. Gygax et al. “Evolution of Real Time Aroma Creation at Givaudan”, poster presented at the 12th Weurman Flavour Research Symposium. July 2008. Interlaken, Switzerland; DOI: 10.13140/2.1.1924.0641.
For the sake of the present evaluation, one cartridge contained the scalp malodour (in the form of a model malodour) and each fragrance ingredient was assigned to another cartridge. The malodour counteractancy of each fragrance ingredient was evaluated separately against the scalp malodour. A constant air flow rate of 50 ml/min was used for all measurements. The perceived malodour intensity, as well as the fragrance intensity, were ranked on a scale of 1-5 (1=barely noticeable, 2=weak, 3=medium, 4=strong and 5=very strong).

SMILES	MO intensity
CC(=O)C1(C)CC2=C(CCCC2(C)C)CC1C (centres unmarked) [1-(2,3,8,8-tetramethyl-1,2,3,4,5,6,7,8-octahydronaphthalen-2-yl)ethanone]	1
CC(=O)c1cc2c(cc1C)C(C)(C)C(C)CC2(C)C (centres unmarked) [1-(3,5,5,6,8,8-hexamethyl-5,6,7,8-tetrahydronaphthalen-2-yl)ethanone]	3
CCC(O)COC1CCCCC1C(C)(C)C (centres unmarked) [1-((2-(tert-butyl)cyclohexyl)oxy)butan-2-ol]	2.3
CC(=O)C1CC/C=C\C(C)C(C)/C=C\C/C=C/1C (centres unmarked) [1-((2E,5Z,9Z)-2,7,8-trimethylcyclododeca-2,5,9-trien-1-yl)ethanone]	1
CCCCOC(=O)C(C)OC(=O)CCC (centres unmarked) [1-butoxy-1-oxopropan-2-yl butanoate]	1
CC(C)=CCC(C)C1CC1(C)CO (centres unmarked) [1-methyl-2-(5-methylhex-4-en-2-yl)cyclopropylmethanol]	2.7
CC1(CO)CC1CC1CC2CC2(C)C1(C)C (centres unmarked) [1-methyl-2-((1,2,2-trimethylbicyclo[3.1.0]hexan-3-yl)methyl)cyclopropyl)methanol]	3.3
CC(=O)c1ccccc1 [1-phenylethanone]	5
c1ccc2[nH]ccc2c1 [1H-indole]	4
CCCCCC1(C)CCC(C)(C)C1=O (centres unmarked) [2,2,5-trimethyl-5-pentylcyclopentanone]	3.5
Cc1ncsc1CCO [2-(4-Methyl-1,3-thiazol-5-yl)ethanoL]	1
CC(=O)OCCC1=CCC2CC1C2(C)C (centres unmarked) [2-(6,6-dimethylbicyclo[3.1.1]hept-2-en-2-yl)ethyl acetate]	2
CC(=O)OC1CCCCC1C(C)(C)C (centres unmarked) [2-(tert-butyl)cyclohexyl acetate]	2
CCOc1cc(C)ccc1O [2-ethoxy-4-methylphenol]	2.8
CC1CCC(C(C)C)C(O)C1 (centres unmarked) [2-isopropyl-5-methylcyclohexanol]	1.2
CCCc1ccc(O)c(OC)c1 [2-methoxy-4-propylphenol]	2
CCCCCCCCCC(C)C=O (centres unmarked) [2-methylundecanal]	3.5
CC(C)=CCCC(C)CCO (centres unmarked) [3,7-dimethyloct-6-en-1-ol]	2.5
CC(C)=CCCC(C)CC=O (centres unmarked) [3,7-dimethyloct-6-enal]	3
CC(C)CCCC(C)CCO (centres unmarked) [3,7-dimethyloctan-1-ol]	4.3
CC(CCO)CCCC(C)(C)O (centres unmarked) [3,7-dimethyloctane-1,7-diol]	1
Cc1cc(CC(C)C)ccc1CCC=O [3-(4-(2-methylpropyl)-2-methylphenyl)propanal]	2.8
CC(C=O)Cc1ccc(C(C)(C)C)cc1 (centres unmarked) [3-(4-(tert-butyl)phenyl)-2-methylpropanal]	2.8
COc1ccc(CC(C)C=O)cc1 (centres unmarked) [3-(4-methoxyphenyl)-2-methylpropanal]	1
Cc1occc(=O)c1O [3-hydroxy-2-methyl-4H-pyran-4-one]	4

Same assay, conditions: Table 3, gas phase, expert description

SMILES	Scalp MOC of ingredient alone
CC(=O)C1(C)CC2=C(CCCC2(C)C)CC1C (centres unmarked) [1-(2,3,8,8-tetramethyl-1,2,3,4,5,6,7,8-octahydronaphthalen-2-yl)ethanone]	No effect
CCC(O)COC1CCCCC1C(C)(C)C (centres unmarked) [1-((2-(tert-butyl)cyclohexyl)oxy)butan-2-ol]	Coverage
CC(=O)C1CC/C=C\C(C)C(C)/C=C\C/C=C/1C (centres unmarked) [1-((2E,5Z,9Z)-2,7,8-trimethylcyclododeca-2,5,9-trien-1-yl)ethanone]	No effect
CCCCOC(=O)C(C)OC(=O)CCC (centres unmarked) [1-butoxy-1-oxopropan-2-yl butanoate]	No effect
Cc1ncsc1CCO [2-(4-Methyl-1,3-thiazol-5-yl)ethanoL]	No effect
CC(CCO)CCCC(C)(C)O (centres unmarked) [3,7-dimethyloctane-1,7-diol]	No effect
COc1ccc(CC(C)C=O)cc1 (centres unmarked) [3-(4-methoxyphenyl)-2-methylpropanal]	No effect

Same assay, conditions: Table 4, air flow 50 ml/min, scale of 1-5

SMILES	MO intensity
CC(=O)c1ccc2ccccc2c1 [1-(2-naphtalenyl)-ethanone]	1
CC(=O)C1=C(C)C2C[C@@]3(C1)C(CC[C@@H]3C)C2(C)C (stereo partly drawn) [1-((1S,8aS)-1,4,4,6-tetramethyl-2,3,3a,4,5,8-hexahydro-1H-5,8a-methanoazulen-7-yl)ethanone]	1
CC1CC(C)(c2ccccc2)OC(C)O1 (centres unmarked) [2,4,6-trimethyl-4-phenyl-1,3-dioxane]	1
CC1CC(C)(c2ccccc2)CO1 (centres unmarked) [2,4-dimethyl-4-phenyltetrahydrofuran]	4.1
CC1=CC(C)C(C=O)CC1 (centres unmarked) [2,4-dimethylcyclohex-3-ene-1-carbaldehyde]	1
CC1=CC(C)C(C=O)CC1 (centres unmarked) [2,4-dimethylcyclohex-3-enecarbaldehyde]	3.8
CC(C)C(=O)OCCOc1ccccc1 [2-(phenoxy)ethyl 2-methylpropanoate]	2.3
N#CC(=C1CCCCC1)c1ccccc1 [2-cyclohexylidene-2-phenylacetonitrile]	1
CCC1OC(C)=C(O)C1=O (centres unmarked) [2-ethyl-4-hydroxy-5-methylfuran-3(2H)-one]	4.5
CC(C)(O)Cc1ccccc1 [2-methyl-1-phenylpropan-2-ol]	1
CCCC(=O)OC(C)(C)Cc1ccccc1 [2-methyl-1-phenylpropan-2-yl butanoate]	3
CCCC1CCOC(C)S1 (centres unmarked) [2-methyl-4-propyl-1,3-oxathiane]	1
OCCc1ccccc1 [2-phenylethanol]	3.2
CC(=O)OCCc1ccccc1 [2-phenylethyl acetate]	1
CC(=O)OCCC(C)CCC=C(C)C (centres unmarked) [3,7-dimethyloct-6-en-1-yl acetate]	2
CCC(C)(O)CCCC(C)C (centres unmarked) [3,7-dimethyloctan-3-ol]	3
CCCCC1COCC(C)C1OC(C)=O (centres unmarked) [3-butyl-5-methyltetrahydro-2H-pyran-4-yl acetate]	1

Same assay, conditions: Table 4, gas phase, expert description

SMILES	Scalp MOC of ingredient alone
CC1=CC(C)C(C=O)CC1 (centres unmarked) [2,4-dimethylcyclohex-3-enecarbaldehyde]	Good coverage
CC(=O)OCCC(C)CCC=C(C)C (centres unmarked) [3,7-dimethyloct-6-en-1-yl acetate]	Low coverage

Assay: Impact of fragrance ingredients on scalp malodour counteractancy of 80 fragrance compositions (Example 2 protocol, statistical presence)
Conditions: Table 3; series of 80 fragrance compositions
Description: In a second set of experiments, the impact of these fragrance ingredients on the scalp malodour counteractancy of a fragrance composition was assessed. The scalp malodour counteractancy of a series of 80 fragrance compositions was assessed by performing the evaluation protocol described in Example 2. […] Ingredients that were statistically more present in fragrances having a high malodour counteractancy were assigned a positive status, whereas ingredients that were statistically more present in compositions having a low malodour counteractancy were assigned a negative status.

SMILES	Impact on scalp MOC of fragrance composition
CC(=O)C1(C)CC2=C(CCCC2(C)C)CC1C (centres unmarked) [1-(2,3,8,8-tetramethyl-1,2,3,4,5,6,7,8-octahydronaphthalen-2-yl)ethanone]	Positive
CC(=O)c1cc2c(cc1C)C(C)(C)C(C)CC2(C)C (centres unmarked) [1-(3,5,5,6,8,8-hexamethyl-5,6,7,8-tetrahydronaphthalen-2-yl)ethanone]	Positive
CCC(O)COC1CCCCC1C(C)(C)C (centres unmarked) [1-((2-(tert-butyl)cyclohexyl)oxy)butan-2-ol]	Positive
CC(=O)C1CC/C=C\C(C)C(C)/C=C\C/C=C/1C (centres unmarked) [1-((2E,5Z,9Z)-2,7,8-trimethylcyclododeca-2,5,9-trien-1-yl)ethanone]	Positive
CCCCOC(=O)C(C)OC(=O)CCC (centres unmarked) [1-butoxy-1-oxopropan-2-yl butanoate]	Positive
CC(C)=CCC(C)C1CC1(C)CO (centres unmarked) [1-methyl-2-(5-methylhex-4-en-2-yl)cyclopropylmethanol]	Positive
CC1(CO)CC1CC1CC2CC2(C)C1(C)C (centres unmarked) [1-methyl-2-((1,2,2-trimethylbicyclo[3.1.0]hexan-3-yl)methyl)cyclopropyl)methanol]	Positive
CC(=O)c1ccccc1 [1-phenylethanone]	Positive
c1ccc2[nH]ccc2c1 [1H-indole]	Positive
CCCCCC1(C)CCC(C)(C)C1=O (centres unmarked) [2,2,5-trimethyl-5-pentylcyclopentanone]	Positive
Cc1ncsc1CCO [2-(4-Methyl-1,3-thiazol-5-yl)ethanoL]	Positive
CC(=O)OCCC1=CCC2CC1C2(C)C (centres unmarked) [2-(6,6-dimethylbicyclo[3.1.1]hept-2-en-2-yl)ethyl acetate]	Positive
CC(=O)OC1CCCCC1C(C)(C)C (centres unmarked) [2-(tert-butyl)cyclohexyl acetate]	Positive
CCOc1cc(C)ccc1O [2-ethoxy-4-methylphenol]	Positive
CC1CCC(C(C)C)C(O)C1 (centres unmarked) [2-isopropyl-5-methylcyclohexanol]	Positive
CCCc1ccc(O)c(OC)c1 [2-methoxy-4-propylphenol]	Positive
CCCCCCCCCC(C)C=O (centres unmarked) [2-methylundecanal]	Positive
CC(C)=CCCC(C)CCO (centres unmarked) [3,7-dimethyloct-6-en-1-ol]	Positive
CC(C)=CCCC(C)CC=O (centres unmarked) [3,7-dimethyloct-6-enal]	Positive
CC(C)CCCC(C)CCO (centres unmarked) [3,7-dimethyloctan-1-ol]	Positive
CC(CCO)CCCC(C)(C)O (centres unmarked) [3,7-dimethyloctane-1,7-diol]	Positive
Cc1cc(CC(C)C)ccc1CCC=O [3-(4-(2-methylpropyl)-2-methylphenyl)propanal]	Positive
CC(C=O)Cc1ccc(C(C)(C)C)cc1 (centres unmarked) [3-(4-(tert-butyl)phenyl)-2-methylpropanal]	Positive
COc1ccc(CC(C)C=O)cc1 (centres unmarked) [3-(4-methoxyphenyl)-2-methylpropanal]	Positive
Cc1occc(=O)c1O [3-hydroxy-2-methyl-4H-pyran-4-one]	Positive

Same assay, conditions: Table 4; series of 80 fragrance compositions

SMILES	Impact on scalp MOC of fragrance composition
CC(=O)c1ccc2ccccc2c1 [1-(2-naphtalenyl)-ethanone]	Negative
CC(=O)C1=C(C)C2C[C@@]3(C1)C(CC[C@@H]3C)C2(C)C (stereo partly drawn) [1-((1S,8aS)-1,4,4,6-tetramethyl-2,3,3a,4,5,8-hexahydro-1H-5,8a-methanoazulen-7-yl)ethanone]	Negative
CC1CC(C)(c2ccccc2)OC(C)O1 (centres unmarked) [2,4,6-trimethyl-4-phenyl-1,3-dioxane]	Negative
CC1CC(C)(c2ccccc2)CO1 (centres unmarked) [2,4-dimethyl-4-phenyltetrahydrofuran]	Negative
CC1=CC(C)C(C=O)CC1 (centres unmarked) [2,4-dimethylcyclohex-3-ene-1-carbaldehyde]	Negative
CC(C)C(=O)OCCOc1ccccc1 [2-(phenoxy)ethyl 2-methylpropanoate]	Negative
N#CC(=C1CCCCC1)c1ccccc1 [2-cyclohexylidene-2-phenylacetonitrile]	Negative
CCC1OC(C)=C(O)C1=O (centres unmarked) [2-ethyl-4-hydroxy-5-methylfuran-3(2H)-one]	Negative
CC(C)(O)Cc1ccccc1 [2-methyl-1-phenylpropan-2-ol]	Negative
CCCC(=O)OC(C)(C)Cc1ccccc1 [2-methyl-1-phenylpropan-2-yl butanoate]	Negative
CCCC1CCOC(C)S1 (centres unmarked) [2-methyl-4-propyl-1,3-oxathiane]	Negative
OCCc1ccccc1 [2-phenylethanol]	Negative
CC(=O)OCCc1ccccc1 [2-phenylethyl acetate]	Negative
CC(=O)OCCC(C)CCC=C(C)C (centres unmarked) [3,7-dimethyloct-6-en-1-yl acetate]	Negative
CCC(C)(O)CCCC(C)C (centres unmarked) [3,7-dimethyloctan-3-ol]	Negative
CCCCC1COCC(C)C1OC(C)=O (centres unmarked) [3-butyl-5-methyltetrahydro-2H-pyran-4-yl acetate]	Negative
